BindingDB's records for doi:10.1016/S0960-894X(01)80235-3 (1994)

molecular target: O-acyltransferase (Oryctolagus cuniculus, UniProt G1SFD9); test: ChEBML_28168
Description: In vitro Acyl coenzyme A:cholesterol acyltransferase inhibition by incubation with [14C]oleolyl-CoA and intestinal microsomes isolated from cholesterol-fed rabbits.

Chain of O-acyltransferase (G1SFD9 1-524): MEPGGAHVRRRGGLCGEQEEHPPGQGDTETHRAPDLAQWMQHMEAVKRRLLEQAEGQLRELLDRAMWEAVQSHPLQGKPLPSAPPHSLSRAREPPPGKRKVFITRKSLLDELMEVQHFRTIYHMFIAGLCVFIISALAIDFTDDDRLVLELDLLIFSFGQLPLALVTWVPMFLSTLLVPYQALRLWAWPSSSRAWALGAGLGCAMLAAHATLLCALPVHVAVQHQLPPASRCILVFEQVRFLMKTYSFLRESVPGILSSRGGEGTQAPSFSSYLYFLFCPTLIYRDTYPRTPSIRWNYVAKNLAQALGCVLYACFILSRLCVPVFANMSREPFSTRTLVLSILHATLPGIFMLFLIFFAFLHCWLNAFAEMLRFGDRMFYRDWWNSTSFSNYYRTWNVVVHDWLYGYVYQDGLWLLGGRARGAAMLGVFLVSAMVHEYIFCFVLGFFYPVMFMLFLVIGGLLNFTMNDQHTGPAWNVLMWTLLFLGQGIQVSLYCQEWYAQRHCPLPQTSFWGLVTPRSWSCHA

Row | Compound | IC50
1 | CCCCCCCC/C=C\CCCCCCCc1cc(=O)n(-c2ccc(F)cc2F)[nH]1 [2-(2,4-Difluoro-phenyl)-5-((Z)-heptadec-8-enyl)-2,4-dihydro-pyrazol-3-one] | 5 µM
2 | CCCCCCCC/C=C\CCCCCCC[c+]1cc(O)n(-c2ccc([N+](=O)[O-])cc2[N+](=O)[O-])[n-]1 [2-(2,4-Dinitro-phenyl)-5-((Z)-heptadec-8-enyl)-2,4-dihydro-pyrazol-3-one] | 5 µM
3 | CCCCCCCC/C=C\CCCCCCCc1cc(=O)n(-c2ccc(C)cc2C)[nH]1 [2-(2,4-Dimethyl-phenyl)-5-((Z)-heptadec-8-enyl)-2,4-dihydro-pyrazol-3-one] | 5 µM
4 | CCCCCCCCCCc1cc(=O)n(-c2c(C)cccc2C)[nH]1 [5-Decyl-2-(2,6-dimethyl-phenyl)-2,4-dihydro-pyrazol-3-one] | 5 µM
